No end group written: not given here.
Legend:
hα9α10[L7H] nAChR = hα9α10[L7H] nAChR (Homo sapiens, UniProt Q9GZZ6+Q9UGM1, L31H); experiment: cell-based; format: cell-based
[1] = target: the molecule itself; experiment: mass spectrometry before and after reduction and alkylation

Chain of hα9α10[L7H] nAChR (Q9UGM1 26-479 limits assumed, stated change not applied): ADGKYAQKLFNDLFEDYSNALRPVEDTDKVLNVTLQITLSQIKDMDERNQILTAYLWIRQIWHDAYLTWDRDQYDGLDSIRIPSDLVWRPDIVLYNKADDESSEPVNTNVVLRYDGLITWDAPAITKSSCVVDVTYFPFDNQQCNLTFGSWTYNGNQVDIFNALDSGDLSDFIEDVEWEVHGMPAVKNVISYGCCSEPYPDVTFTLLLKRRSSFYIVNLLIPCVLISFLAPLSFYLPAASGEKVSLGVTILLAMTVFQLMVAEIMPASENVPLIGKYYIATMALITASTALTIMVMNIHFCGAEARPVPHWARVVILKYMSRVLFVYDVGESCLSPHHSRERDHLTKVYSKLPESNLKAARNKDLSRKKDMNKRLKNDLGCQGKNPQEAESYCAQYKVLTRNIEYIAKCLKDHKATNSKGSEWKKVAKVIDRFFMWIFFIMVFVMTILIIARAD
Chain of hα9α10[L7H] nAChR (Q9GZZ6 25-450 L31H limits assumed, stated change not applied): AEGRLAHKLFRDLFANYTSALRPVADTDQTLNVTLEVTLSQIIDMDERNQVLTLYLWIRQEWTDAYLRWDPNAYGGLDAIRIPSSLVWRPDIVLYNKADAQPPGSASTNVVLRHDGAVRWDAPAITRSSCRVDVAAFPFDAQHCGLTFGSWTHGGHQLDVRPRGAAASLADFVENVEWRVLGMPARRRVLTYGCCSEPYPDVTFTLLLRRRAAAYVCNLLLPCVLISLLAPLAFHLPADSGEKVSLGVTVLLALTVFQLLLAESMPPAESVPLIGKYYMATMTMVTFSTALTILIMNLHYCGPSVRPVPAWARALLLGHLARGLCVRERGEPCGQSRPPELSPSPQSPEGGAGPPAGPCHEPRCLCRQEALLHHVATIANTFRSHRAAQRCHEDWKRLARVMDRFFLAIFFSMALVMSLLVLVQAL

Row | Molecule | effect of α10 L7H mutation on inhibitory activity (in words) (hα9α10[L7H] nAChR) | stoichiometry N [1]
1 | Vc1.1 [reference compound] | not affected by this mutation | –
2 | DVHRPCQSVRPGRVWGKCCLTRLCSTMCCARADCTCVYHTWRGHGCSCVM (ends and bridges not checked; cysteine pairing not given here) [αD-conotoxin GeXXA] | – | 2

Source: paper PMC4585798 (Scientific Reports, 2015)
